According to patent publication US9695155B2, “Herbicidal substituted pyrimidinyloxy benzene compounds” (E. I. DU PONT DE NEMOURS AND COMPANY, priority 2013, dated 2017):

Key:
Test in all cases: Test C preemergence
[1] = system: large (Lg) crabgrass; format: in vivo, Digitaria sanguinalis; settings: for Crabgrass, Large plant response rating: preemergence, scale 0 (no effect) to 100 (complete control)
Text: (§1) Seeds of plant species selected from blackgrass (Alopecurus myosuroides), Italian ryegrass (Lolium multiflorum), wheat, winter (winter wheat, Triticum aestivum), galium (catchweed bedstraw, Galium aparine), corn (Zea mays), large (Lg) crabgrass (Digitaria sanguinalis), giant foxtail (Setaria faberii), johnsongrass (Sorghum halepense), lambsquarters (Chenopodium album), morningglory (Ipomoea coccinea), yellow nutsedge (Cyperus esculentus), pigweed (Amaranthus retroflexus), ragweed (common ragweed, Ambrosia elatior), soybean (Glycine max), barnyardgrass (Echinochloa crus-galli), oilseed rape (Brassica napus), waterhemp (common waterhemp, Amaranthus rudis), kochia (Kochia scoparia), wild oat (Avena fatua), surinam grass (Brachiaria decumbens), foxtail, green (green foxtail, Setaria viridis), goosegrass (Eleusine indica), bromegrass, downy (downy bromegrass, Bromus tectorum), nightshade (eastern black nightshade, Solanum ptycanthum), cocklebur (common cocklebur, Xanthium strumarium), cupgrass, woolly (woolly cupgrass, Eriochloa villosa), bermudagrass (Cynodon dactylon), sunflower, (common oilseed sunflower, Helianthus annuus), Russian thistle (Salsola kali), and velvetleaf (Abutilon theophrasti) were planted into a blend of loam soil and sand and treated preemergence with test chemicals formulated in a non-phytotoxic solvent mixture which included a surfactant.
(§2) At the same time, plants selected from these crop and weed species and also barley, winter (winter barley, Hordeum vulgare), windgrass (Apera spica-venti), chickweed (common chickweed, Stellaria media), deadnettle (henbit deadnettle, Lamium amplexicaule), and canarygrass (littleseed canarygrass, Phalaris minor) were planted in pots containing Redi-Earth® planting medium (Scotts Company, 14111 Scottslawn Road, Marysville, Ohio 43041) comprising spaghnum peat moss, vermiculite, wetting agent and starter nutrients and treated with postemergence applications of test chemicals formulated in the same manner. Plants ranged in height from 2 to 18 cm (1- to 4-leaf stage) for postemergence treatments. Treated plants and controls were maintained in a greenhouse for 13 to 15 days, after which time all species were compared to controls and visually evaluated. Plant response ratings, summarized in Table C, are based on a scale of 0 to 100 where 0 is no effect and 100 is complete control. A dash (-) response means no test result.

[2] = system: velvetleaf; format: in vivo, Abutilon theophrasti; settings: for Velvetleaf plant response rating: preemergence, scale 0 (no effect) to 100 (complete control)
Text: as §1, §2

[3] = system: oilseed rape; format: in vivo, Brassica napus; settings: for Oilseed Rape plant response rating: preemergence, scale 0 (no effect) to 100 (complete control)
In short: (§3)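 Preemergence: seeds sown in a loam soil–sand blend and sprayed with test chemical in a non-phytotoxic solvent mixture containing surfactant. Postemergence: plants at 2 to 18 cm (1- to 4-leaf stage) in peat-based medium, treated with the same formulation. Greenhouse 13 to 15 days, then visual rating 0 (no effect) to 100 (complete control).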

[4] = system: johnsongrass; format: in vivo, Sorghum halepense; settings: for Johnsongrass plant response rating: preemergence, scale 0 (no effect) to 100 (complete control)
Text: as §1, §2

[5] = system: blackgrass; format: in vivo, Alopecurus myosuroides; settings: for Blackgrass plant response rating: preemergence, scale 0 (no effect) to 100 (complete control)
Text: as §1, §2

[6] = system: Italian ryegrass; format: in vivo, Lolium multiflorum; settings: for Ryegrass, Italian plant response rating: preemergence, scale 0 (no effect) to 100 (complete control)
In short: as §3

[7] = system: giant foxtail; format: in vivo, Setaria faberii; settings: for Foxtail, Giant plant response rating: preemergence, scale 0 (no effect) to 100 (complete control)
Text: as §1, §2

[8] = system: waterhemp; format: in vivo, Amaranthus rudis; settings: for Waterhemp plant response rating: preemergence, scale 0 (no effect) to 100 (complete control)
Text: as §1, §2

[9] = system: pigweed; format: in vivo, Amaranthus retroflexus; settings: for Pigweed plant response rating: preemergence, scale 0 (no effect) to 100 (complete control)
Text: as §1, §2

[10] = system: soybean; format: in vivo, Glycine max; settings: for Soybean plant response rating: preemergence, scale 0 (no effect) to 100 (complete control)
Text: as §1, §2

[11] = system: barnyardgrass; format: in vivo, Echinochloa crus-galli; settings: for Barnyardgrass plant response rating: preemergence, scale 0 (no effect) to 100 (complete control)
Text: as §1, §2

[12] = system: morningglory; format: in vivo, Ipomoea coccinea; settings: for Morningglory plant response rating: preemergence, scale 0 (no effect) to 100 (complete control)
In short: as §3

[13] = system: lambsquarters; format: in vivo, Chenopodium album; settings: for Lambsquarters plant response rating: preemergence, scale 0 (no effect) to 100 (complete control)
Text: as §1, §2

[14] = system: yellow nutsedge; format: in vivo, Cyperus esculentus; settings: for Nutsedge, Yellow plant response rating: preemergence, scale 0 (no effect) to 100 (complete control)
In short: as §3

[15] = Preemergence, 31 g ai/ha, scale 0 to 100, 0 no effect, 100 complete control

N#Cc1cccc(Oc2ncc(Cl)cn2)c1-n1cc(Cl)cn1 [Compound 72]
Crabgrass, Large plant response rating ([1]; 62 g ai/ha): 100
Crabgrass, Large plant response rating ([1]; 125 g ai/ha): 100
Crabgrass, Large plant response rating ([1]; 250 g ai/ha): 100
Plant response rating, Crabgrass, Large [1, 15]: 100
Velvetleaf plant response rating ([2]; 62 g ai/ha): 95
Velvetleaf plant response rating ([2]; 125 g ai/ha): 100
Velvetleaf plant response rating ([2]; 250 g ai/ha): 100
Plant response rating, Velvetleaf [2, 15]: 60
Oilseed Rape plant response rating ([3]; 62 g ai/ha): 100
Oilseed Rape plant response rating ([3]; 125 g ai/ha): 100
Oilseed Rape plant response rating ([3]; 250 g ai/ha): 100
Plant response rating, Oilseed Rape [3, 15]: 65
Johnsongrass plant response rating ([4]; 62 g ai/ha): 55
Johnsongrass plant response rating ([4]; 125 g ai/ha): 100
Johnsongrass plant response rating ([4]; 250 g ai/ha): 100
Plant response rating, Johnsongrass [4, 15]: 35
Blackgrass plant response rating ([5]; 62 g ai/ha): 90
Blackgrass plant response rating ([5]; 125 g ai/ha): 90
Blackgrass plant response rating ([5]; 250 g ai/ha): 95
Plant response rating, Blackgrass [5, 15]: 50
Ryegrass, Italian plant response rating ([6]; 62 g ai/ha): 10
Ryegrass, Italian plant response rating ([6]; 125 g ai/ha): 40
Ryegrass, Italian plant response rating ([6]; 250 g ai/ha): 80
Plant response rating, Ryegrass, Italian [6, 15]: 5
Foxtail, Giant plant response rating ([7]; 62 g ai/ha): 100
Foxtail, Giant plant response rating ([7]; 125 g ai/ha): 100
Foxtail, Giant plant response rating ([7]; 250 g ai/ha): 100
Plant response rating, Foxtail, Giant [7, 15]: 100
Waterhemp plant response rating ([8]; 62 g ai/ha): 100
Waterhemp plant response rating ([8]; 125 g ai/ha): 100
Waterhemp plant response rating ([8]; 250 g ai/ha): 100
Plant response rating, Waterhemp [8, 15]: 100
Pigweed plant response rating ([9]; 62 g ai/ha): 100
Pigweed plant response rating ([9]; 125 g ai/ha): 100
Pigweed plant response rating ([9]; 250 g ai/ha): 100
Plant response rating, Pigweed [9, 15]: 100
Soybean plant response rating ([10]; 62 g ai/ha): 55
Soybean plant response rating ([10]; 125 g ai/ha): 80
Soybean plant response rating ([10]; 250 g ai/ha): 85
Plant response rating, Soybean [10, 15]: 40
Barnyardgrass plant response rating ([11]; 62 g ai/ha): 100
Barnyardgrass plant response rating ([11]; 125 g ai/ha): 100
Barnyardgrass plant response rating ([11]; 250 g ai/ha): 100
Plant response rating, Barnyardgrass [11, 15]: 75
Morningglory plant response rating ([12]; 62 g ai/ha): 85
Morningglory plant response rating ([12]; 125 g ai/ha): 100
Morningglory plant response rating ([12]; 250 g ai/ha): 100
Plant response rating, Morningglory [12, 15]: 15
Lambsquarters plant response rating ([13]; 62 g ai/ha): 100
Lambsquarters plant response rating ([13]; 125 g ai/ha): 100
Lambsquarters plant response rating ([13]; 250 g ai/ha): 100
Plant response rating, Lambsquarters [13, 15]: 98
Nutsedge, Yellow plant response rating ([14]; 62 g ai/ha): 0
Nutsedge, Yellow plant response rating ([14]; 125 g ai/ha): 10
Nutsedge, Yellow plant response rating ([14]; 250 g ai/ha): 80
Plant response rating, Nutsedge, Yellow [14, 15]: 0
